pIC50: −log10 of the molar value.

One assay concerns the target T1, ROCKII (1-543) (Homo sapiens (Human), UniProt O75116). Briefly: Luciferin-Luciferase Assay (Assay 1). It is filed as biochemical. To be noted: luciferin-luciferase residual ATP; 750 nM ATP, 7.5 nM kinase. How it is done:
1. Luciferin-Luciferase Assay
The activity of ROCKII (1-543) kinase is measured utilizing Cambrex PKLight ATP Detection Reagent, a homogeneous assay technology using luciferin-luciferase to quantify residual ATP. The assay is performed in 384-well low-volume, white, non-binding surface microtiter plates (Corning). The assay buffer is 25 mM HEPES, pH 7.5, 10 mM MgCl2, 50 mM KCl, 0.2% BSA, 0.01% CHAPS, 100 μM Na3VO4 and 0.5 mM DTT. Test compounds, dissolved in neat DMSO at 500 μg/mL, are serially diluted for dose response for a final starting concentration of 3 μg/mL in 1% DMSO of assay buffer. ROCKII (1-543) (62,408 Da) is diluted in assay buffer to a final concentration of 7.5 nM in a total volume of 15 μL. Positive controls are reaction mixtures containing no test compound; negative controls (blanks) are reaction mixtures containing no kinase. After 15 minutes of pre-incubation of the test compounds with the kinase, a mixture of ATP and peptide substrate ([…]) in assay buffer is added to each well for a final concentration of 750 nM ATP and 500 nM peptide, respectively. After 90 minutes of incubation of the kinase reaction at 28° C. temperature, 10 μL of PKLight ATP Detection Reagent (warmed to room temperature previously) is added to each well. The assay plate is incubated at room temperature for additional 15 minutes and then read on an Analyst in luminescence mode. Dose-response experiments for each of the test compounds are conducted in quadruplet. IC50 values of test compounds represent 50% response of the positive control from the dose-response curve.
Target sequence in this assay (O75116 1-543): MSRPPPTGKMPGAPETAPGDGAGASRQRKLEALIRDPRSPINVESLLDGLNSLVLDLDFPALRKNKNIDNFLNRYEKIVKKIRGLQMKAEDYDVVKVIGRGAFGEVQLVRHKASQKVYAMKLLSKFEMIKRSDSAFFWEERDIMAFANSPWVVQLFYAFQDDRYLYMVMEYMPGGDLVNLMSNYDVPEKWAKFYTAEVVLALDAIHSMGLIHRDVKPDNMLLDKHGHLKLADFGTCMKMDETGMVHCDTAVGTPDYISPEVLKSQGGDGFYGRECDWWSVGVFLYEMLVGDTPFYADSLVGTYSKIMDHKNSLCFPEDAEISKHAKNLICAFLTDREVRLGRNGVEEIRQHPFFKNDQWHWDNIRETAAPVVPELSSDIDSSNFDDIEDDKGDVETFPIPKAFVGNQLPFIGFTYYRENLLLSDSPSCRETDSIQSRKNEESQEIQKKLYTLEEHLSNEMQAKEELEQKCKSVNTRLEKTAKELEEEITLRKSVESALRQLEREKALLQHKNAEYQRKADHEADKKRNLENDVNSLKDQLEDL
Regarding `CN1CCc2ccc(NC(=O)c3cccc(CNC(=O)c4cn5ccc(C#N)cc5n4)c3)cc2C1` [compound 18], the pIC50 is 7.71. Still for that read-out and setting: the value for `N[C@@H]1CCc2nc(NC(=O)c3cccc(CNC(=O)c4ccc(-c5csnn5)cc4)c3)sc2C1` [compound 24] was 7.84.

With `CN1CCc2ccc(NC(=O)c3cccc(CNC(=O)c4csc(-c5ccncc5)n4)c3)cc2C1` [compound 33], the negative-log IC50 (pIC50) was 7.48. This pIC50 lies 0.36 log units lower than the previous one. Still for that read-out and setting: the value for `Cc1nnnn1-c1ccc(C(=O)NCc2cccc(C(=O)Nc3ccc4c(c3)CN(C)CC4)c2)cc1` [compound 37] was 7.36.

In a further assay the target is T1, ROCKII (1-543). Briefly: IMAP Assay (Assay 2). The format is biochemical. To be noted: IMAP fluorescence polarization; 100 μM ATP, 1 nM kinase. How it is done:
This assay is performed using FAM S6 substrate peptide (Catalogue #R7184) and IMAP FP Screening Express Kit detection reagents from Molecular Devices (Sunnyvale, Calif.) in IMAP kinase reaction buffer (Tris-HCl, pH 7.2, 10 mM MgCl2, 0.05% NaN3, 0.1% phosphate-free BSA) containing 1 mM DTT. Test compounds dissolved in neat DMSO at 0.3 mg/mL are serially diluted 1 to 3 for concentration response in 100% DMSO. The DMSO serial dilutions are further diluted 33.33-fold in kinase reaction buffer, and 10 μL of this buffer dilution is transferred to Corning black 96-well half area NBS plates for a final top concentration of 3 μg/mL in 1% DMSO. 10 μL aliquot of 3 nM ROCKII (1-543) diluted in kinase reaction buffer is added to each assay well for a final concentration of 1 nM kinase. 10 μL of a mixture of 600 nM FAM S6 peptide and 300 μM ATP diluted in kinase reaction buffer is added to each well for a final concentration of 200 nM peptide and 100 μM ATP. The kinase reaction mixture is incubated for 60 minutes at room temperature. Positive controls are reaction mixtures containing no test compound and negative controls (blanks) are reaction mixtures containing no kinase. The kinase reaction is stopped by addition of 60 μL IMAP progressive binding reagent (Catalog #R7284) diluted 400-fold in 1× Binding buffer A. After 30 min of incubation at room temperature, the plates are read for fluorescence polarization on Analyst Plate Reader using Ex 485 nm, Em 530 nm, and FL 505 dichroic minor. The mP signals are converted to percent of control (POC) values using the formula: POC=100*(Signal−BCTRL)÷(PCTRL−BCTRL)
Where Signal is the test well signal, BCTRL is the average of background (negative control) well signals on the plate and PCTRL is the average of positive control well signals on the plate. For the concentration-responsive compounds, POC as a function of test compound concentration is fitted to a 4-parameter logistic equation of the form: Y=A+(B−A)/[1+(x/C)D]
Where A, B, C, and D are fitted parameters (parameter B is fixed at zero POC), and x and y are the independent and dependent variables, respectively. The IC50 is determined as the inflection point parameter, C.
Background: Fluorescence polarisation rises when a labelled molecule tumbles more slowly, as on binding a larger partner.
Target sequence in this assay (O75116 1-543, species assumed): as the sequence (O75116 1-543) above
Regarding `CN1CCc2nc(NC(=O)c3cccc(CNC(=O)c4ccc(-n5ccnc5)cc4)c3)sc2C1` [compound 2], the negative-log IC50 (pIC50) was 8.72. In turn, `CN1CCc2nc(NC(=O)c3cccc(CNC(=O)c4ccc(-c5cnco5)cc4)c3)sc2C1` [compound 12] gave a pIC50 of 9.68.

In the case of `CN1CCc2nc(NC(=O)c3cccc(CNC(=O)c4ccc5cc(O)ccc5c4)c3)sc2C1` [compound 20], the negative logarithm of the IC50 (pIC50) is 9.41. Same read-out and setting: the value for `N[C@@H]1CCc2nc(NC(=O)c3cccc(CNC(=O)c4csc(-c5ccncc5)n4)c3)sc2C1` [compound 32] was 8.32; that for `CN1CCc2nc(NC(=O)c3cccc(CNC(=O)c4ccc(-c5ccncc5)cc4)c3)sc2C1` [compound 56] was 9.59; that for `CN1CCc2ccc(NC(=O)c3cccc(CNC(=O)c4ccc(-c5ccncc5)s4)c3)cc2C1` [compound 70] was 9.60. The compound `CN1CCc2ccc(NC(=O)c3cccc(CNC(=O)c4ccc(-c5cn[nH]c5)s4)c3)cc2C1` [compound 78, 5-(1H-pyrazol-4-yl)-thiophene-2-carboxylic acid 3-(2-methyl-1,2,3,4-tetrahydro-isoquinolin-7-ylcarbamoyl)-benzylamide] showed a negative-log IC50 (pIC50) of 9.77. The same measure, in the same setting: the value for `CN1CCc2ccc(NC(=O)c3cccc(CNC(=O)c4cc5ccc(C(N)=O)cc5n4C)c3)cc2C1` [compound 84] was 9.59. The same measure, in the same setting: the value for `CN(C)[C@H]1CCc2nc(NC(=O)c3cccc(CNC(=O)c4cn5ccc(C#N)cc5n4)c3)sc2C1` [compound 98] was 9.57. The same measure, in the same setting: the value for `Cc1nnnn1-c1ccc(C(=O)NCc2cccc(C(=O)Nc3nc4c(s3)C[C@@H](N(C)C)CC4)c2)cc1` [compound 104] was 9.37; that for `CN(C)[C@H]1CCc2nc(NC(=O)c3cccc(CNC(=O)c4ccc(-c5ccncc5)cc4)c3)sc2C1` [compound 106] was 9.66.

`CN(C)[C@H]1CCc2nc(NC(=O)c3cccc(CNC(=O)c4csc(-c5cccnc5)n4)c3)sc2C1` [compound 108] showed a pIC50 of 9.49. This pIC50 and that of the compound before are within 0.2 log units of each other. Take `CN1CCc2nc(NC(=O)c3cccc(CNC(=O)c4ccc(-c5ccncc5)s4)c3)sc2C1` [compound 112]: the negative-log IC50 (pIC50) is 9.74. Against the preceding compound, the pIC50 is 0.25 log units higher.

As to `CN1CCc2nc(NC(=O)c3cccc(CNC(=O)c4ccc(-c5cnco5)s4)c3)sc2C1` [compound 114], the pIC50 was 9.35. Same read-out and setting: the value for `CN1CCc2nc(NC(=O)c3cccc(CNC(=O)c4ccc(-c5cn[nH]c5)s4)c3)sc2C1` [compound 120] was 9.11; that for `CN(C)[C@H]1CCc2nc(NC(=O)c3cccc(CNC(=O)c4ccc(-c5ccncc5)s4)c3)sc2C1` [compound 126] was 9.57. Turning to `CN(C)[C@H]1CCc2nc(NC(=O)c3cccc(CNC(=O)c4ccc(-c5cnco5)s4)c3)sc2C1` [compound 128], the pIC50 was 9.43. The same measure, in the same setting: the value for `CN(C)[C@H]1CCc2nc(NC(=O)c3cccc(CNC(=O)c4ccc(-c5cn[nH]c5)s4)c3)sc2C1` [compound 130] was 9.66; that for `CN(C)[C@H]1CCc2nc(NC(=O)c3cccc(CNC(=O)c4cccc(-c5cn[nH]c5)c4)c3)sc2C1` [compound 132] was 9.49; that for `CN(C)[C@H]1CCc2nc(NC(=O)c3cccc(CNC(=O)c4ccc(-n5ccnc5)cc4)c3)sc2C1` [compound 134] was 9.62.

For the compound `CN(C)[C@H]1CCc2nc(NC(=O)c3cccc(CNC(=O)c4ccc(-c5cnco5)cc4)c3)sc2C1` [compound 136], the pIC50 was 9.70. For `CN(C)[C@H]1CCc2nc(NC(=O)c3cccc(CNC(=O)c4nnn(-c5nonc5N)c4-c4ccccc4)c3)sc2C1` [compound 138], the negative-log IC50 (pIC50) is 9.68. Still for that read-out and setting: the value for `CN(C)[C@H]1CCc2nc(NC(=O)c3cccc(CNC(=O)c4csc(-c5ccncc5)n4)c3)sc2C1` [compound 140] was 9.06. The same measure, in the same setting: the value for `Cc1c(C(=O)NCc2cccc(C(=O)Nc3nc4c(s3)C[C@@H](N(C)C)CC4)c2)nnn1-c1nonc1N` [compound 142] was 9.48; that for `O=C(Nc1nc2c(s1)C[C@@H](N1CCOCC1)CC2)c1cccc(CNC(=O)c2csc(-c3cccnc3)n2)c1` [compound 146] was 9.14. In turn, `N#Cc1ccn2cc(C(=O)NCc3cccc(C(=O)Nc4nc5c(s4)C[C@@H](N4CCOCC4)CC5)c3)nc2c1` [compound 148] had a pIC50 of 9.28. The pIC50 values of the last two compounds are within 0.2 log units of each other. In the case of `Nc1nonc1-n1nnc(C(=O)NCc2cccc(C(=O)Nc3nc4c(s3)C[C@@H](N3CCOCC3)CC4)c2)c1-c1ccccc1` [compound 150], the pIC50 was 8.58. Still for that read-out and setting: the value for `O=C(NCc1cccc(C(=O)Nc2nc3c(s2)C[C@@H](N2CCOCC2)CC3)c1)c1ccc(-c2cnco2)cc1` [compound 162] was 9.37; that for `O=C(Nc1nc2c(s1)C[C@@H](N1CCOCC1)CC2)c1cccc(CNC(=O)c2csc(-c3ccncc3)n2)c1` [compound 164] was 9.03. On the same count and under the same terms, the value for `O=C(Nc1nc2c(s1)C[C@@H](N1CCOCC1)CC2)c1cccc(CNC(=O)c2cc(-c3ccncc3)[nH]n2)c1` [compound 166] was 9.47. Compound `Cc1nc(-c2ccncc2)sc1C(=O)NCc1cccc(C(=O)Nc2nc3c(s2)C[C@@H](N2CCOCC2)CC3)c1` [compound 168] showed a negative-log IC50 (pIC50) of 9.43. On the same count and under the same terms, the value for `O=C(NCc1cccc(C(=O)Nc2nc3c(s2)C[C@@H](N2CCOCC2)CC3)c1)c1cccc(-c2cn[nH]c2)c1` [compound 170] was 9.39; that for `O=C(NCc1cccc(C(=O)Nc2nc3c(s2)C[C@@H](N2CCOCC2)CC3)c1)c1ccc(-n2ccnc2)cc1` [compound 172] was 9.42.

On to `Cc1nnnn1-c1ccc(C(=O)NCc2cccc(C(=O)Nc3nc4c(s3)C[C@@H](N3CCOCC3)CC4)c2)cc1` [compound 174], for which the negative-log IC50 (pIC50) is 9.46. Still for that read-out and setting: the value for `N#Cc1ccc2cc(C(=O)NCc3cccc(C(=O)Nc4nc5c(s4)C[C@@H](N4CCOCC4)CC5)c3)[nH]c2c1` [compound 176] was 9.06; that for `CN1CCc2ccc(NC(=O)c3cccc(CNC(=O)N4CCc5c(C#N)cccc54)c3)cc2C1` [compound 201, 4-cyano-2,3-dihydro-indole-1-carboxylic acid 3-(2-methyl-1,2,3,4-tetrahydro-isoquinolin-7-ylcarbamoyl)-benzylamide] was 7.47.

Compound `CN1CCc2ccc(NC(=O)c3cccc(CNC(=O)c4nc(-c5cccnc5)cs4)c3)cc2C1` [compound 202] had a negative-log IC50 (pIC50) of 7.14. Compared with the last compound, the pIC50 is 0.33 log units lower. The same measure, in the same setting: the value for `Cc1nc(-c2ccncc2)sc1C(=O)NCc1cccc(C(=O)Nc2nc3c(s2)C[C@@H](N(C)C)CC3)c1` [compound 205] was 9.60; that for `CN(C)[C@H]1CCc2nc(NC(=O)c3cccc(CNC(=O)c4cc(-c5ccncc5)[nH]n4)c3)sc2C1` [compound 207] was 9.70. Same read-out and setting: the value for `CN1CCc2nc(NC(=O)c3cccc(CNC(=O)c4cn5cc(C(N)=O)ccc5n4)c3)sc2C1` [compound 209] was 8.43.

Usually pIC50 stands for −log10 of the IC50, conventionally taken in molar units.

These data come from patent US8697911B2, “Rho kinase inhibitors” (Boehringer Ingelheim International GmbH, priority 2010, dated 2014).
